Experimental data published in US11571403B2, “Methods for the treatment of non-alcoholic steatohepatitis” (Eiger Biopharmaceuticals, Inc., priority 2016, dated 2023).

System: STAM model of NASH fibrosis
Assay: Fibrosis area by Sirius red staining, STAM model of NASH with fibrosis (Example 3)
Assay type: in vivo, mouse
Method: Ubenimex or telmisartan was administered orally in a volume at 10 mL/kg. Ubenimex was administered at a dose of 5 mg/kg once daily or twice daily. Telmisartan was administered at a dose of 5 mg/kg once daily. For HE staining, sections were cut from paraffin blocks of liver tissue prefixed in Bouin's solution and stained with Lillie-Mayer's hematoxylin (Muto Pure Chemicals Co., Ltd., Japan) and eosin solution (Wako Pure Chemical Industries, Ltd., Japan). NAFLD Activity Score (NAS) was calculated according to the criteria of Kleiner (Kleiner et al., Hepatology, 2005, 41:1313). To visualize collagen deposition, Bouin's fixed liver sections were stained using picro-Sirius red solution (Waldeck, Germany). For quantitative analysis of fibrosis area, bright field images of Sirius red-staining sections were captured around the central vein using a digital camera (DFC295; Leica, Germany) at 200-fold magnification, and the positive areas in 5 fields/section were measured using ImageJ software (National Institutes of Health, USA). Study groups: The following study groups were used. Group 1 (Vehicle): 8 NASH mice were orally administered vehicle (RO water) in a volume of 10 mL/kg twice daily from 6 to 11 weeks of age. Group 2 (Ubenimex QD for 5 weeks): 8 NASH mice were orally administered vehicle supplemented with ubenimex at a dose of 5 mg/kg once daily from 6 to 11 weeks of age. Group 3 (Ubenimex BID for 5 weeks): 8 NASH mice were orally administered vehicle supplemented with ubenimex at a dose of 5 mg/kg twice daily from 6 to 11 weeks of age. Group 4 (Ubenimex BID for 2 weeks): 8 NASH mice were orally administered vehicle supplemented with ubenimex at a dose of 5 mg/kg twice daily from 9 to 11 weeks of age. Group 5 (Telmisartan for 5 weeks): 8 NASH mice were orally administered pure water supplemented with telmisartan at a dose of 5 mg/kg once daily from 6 to 11 weeks of age.

CCCc1nc2c(C)cc(-c3nc4ccccc4n3C)cc2n1Cc1ccc(-c2ccccc2C(=O)O)cc1 [Telmisartan, telmisartan]
Sirius red-positive area (fibrosis area, mean ± SD) (telmisartan 5 mg/kg QD oral, 6 to 11 weeks of age): 0.57 ± 0.14%

CC(C)C[C@H](NC(=O)[C@@H](O)[C@H](N)Cc1ccccc1)C(=O)O [Ubenimex, (2S)-2-[[(2S,3R)-3-amino-2-hydroxy-4-phenylbutanoyl]amino]-4-methylpentanoic acid]
Sirius red-positive area (fibrosis area, mean ± SD) (ubenimex 5 mg/kg BID oral, 6 to 11 weeks of age): 0.88 ± 0.22%
Sirius red-positive area (fibrosis area, mean ± SD) (ubenimex 5 mg/kg BID oral, 9 to 11 weeks of age): 0.87 ± 0.14%
Sirius red-positive area (fibrosis area, mean ± SD) (ubenimex 5 mg/kg QD oral, 6 to 11 weeks of age): 0.75 ± 0.16%
